Results published in patent publication US11299458B2, “Crystalline compounds” (OTSUKA AMERICA PHARMACEUTICAL, INC., priority 2015, dated 2022).

Legend:
[1] = Accelerated stress conditions (relative humidity stress), solid form by XRPD; assay type: physicochemical; conditions: two weeks
Procedure: Relative Humidity Stress: Solids are stored at approximately 40° C./75% RH condition for a measured time period by placing the solids into a vial inside a sealed temperature/humidity chamber at the controlled condition. Samples are analyzed after removal from the stress environment.
Crystalline Forms A, B, and C are exposed to accelerated stress conditions for two weeks (Table 18 below). […] Crystalline Form C is metastable at this condition.
Experimental: Relative Humidity Stress
The following relative humidity jars (saturated salt solutions are used to generate desired relative humidity) are utilized: 75% RH (NaCl) and 56% RH (NaBr) (Nyqvist, H., Int. J. Pharm. Tech. &Prod. Mfr. 1983, 4 (2), 47-48).

[2] = Polymorph screen: crystallization, slurry, vapor stress and pH buffer experiments, XRPD result; assay type: physicochemical
Procedure: Antisolvent Precipitation: Solutions are prepared in various solvents and filtered through a 0.2-μm nylon filter into a vial. Antisolvent is then added until precipitation is observed. The resulting solids are isolated by vacuum filtration and analyzed.
Crash Cool (CC): Solutions are prepared in various solvents at an elevated temperature and filtered warm through a 0.2-μm nylon filter into a pre-cooled vial. The vial is placed in a (dry ice+isopropanol) cooling bath. Samples are placed into a freezer if no solids are observed to immediately precipitate. The resulting solids are isolated by vacuum filtration and analyzed.
(§1) Fast Evaporation (FE): Solutions are prepared in various solvents and sonicated between aliquot additions to assist in dissolution. Once a mixture reaches complete dissolution, as judged by visual observation, the solution is filtered through a 0.2-μm nylon filter. The filtered solution is allowed to evaporate at ambient conditions in an uncapped vial. Solutions are evaporated to dryness unless designated as partial evaporations. The solids that formed are isolated and analyzed.
Slow Cooling (SC): Solutions are prepared in various solvents at an elevated temperature. The solutions are filtered warm through a 0.2-μm nylon filter into a warm vial. The vial is capped and left on the hot plate, and the hot plate is turned off to allow the sample to cool slowly to ambient temperature. If no solids are present after cooling to ambient temperature, the sample is placed in a refrigerator and/or freezer for further cooling. Solids are collected by vacuum filtration and analyzed.
as §1, with “Slow” for “Fast”, “(SE):” for “(FE):”, “sonicated” for “sonicated between aliquot additions”, “a vial covered with aluminum foil perforated with pinholes.” for “an uncapped vial.”, “form” for “formed”
Slurry Experiments: Suspensions are prepared by adding enough solids to a given solvent so that excess solids are present. The mixture is then agitated in a sealed vial at ambient temperature or an elevated temperature. After a given period of time, the solids are isolated by vacuum filtration and analyzed.
Vapor Diffusion (VD): Solutions are prepared in various solvents and filtered through a 0.2-μm nylon filter. The filtered solution is dispensed into a 1-dram vial, which is then placed inside a 20-mL vial containing antisolvent. The 1-dram vial is left uncapped and the 20-mL vial is capped to allow vapor diffusion to occur. The resulting solids are isolated and analyzed.
Vapor Stress (VS): A solid sample is placed into a 1-dram vial. The 1-dram vial is then placed into a 20-mL vial containing solvent. The 20-mL vial is capped and left at ambient conditions for a measured time period. Samples are analyzed after removal from the stress environment.
Crystalline Form A through Form F are prepared as follows by using Crystalline Form A obtained from Example 1 above. A variety of crystallization techniques are used, including evaporation, cooling, solvent/antisolvent precipitation, slurry, vapor stress, and vapor diffusion, as described above.
Crystalline Forms D, E, and F—Crystalline Form A is dissolved in pH adjusted buffered media. Undissolved solid or precipitate observed is analyzed by XRPD. Some experiments are conducted at elevated temperature to increase solubility, the undissolved solids are also analyzed by XRPD.
Crystalline Form A from Example 5 is used to make the following crystalline forms.

SMILES: Cl.c1ccc2cc([C@]34CNC[C@H]3C4)ccc2c1 [Crystalline Form A, (1R,5S)-1-(naphthalen-2-yl)-3-azabicyclo[3.1.0]hexane hydrochloride]
- solid form by XRPD after accelerated stress ([1]; 30° C./56% RH): remain unchanged
- solid form by XRPD after accelerated stress ([1]; 40° C./75% RH, hydrochloride): remain unchanged
- XRPD Result ([2]; 1-propanol, CC (70° C. to dry ice/IPA), freezer/2 d): B + weak A
- XRPD Result ([2]; DCM, SE): A + B
- XRPD Result ([2]; EtOH, CC (70° C. to dry ice/IPA), freezer/2 d): C + weak A
- XRPD Result ([2]; EtOH, FE): A + B
- XRPD Result ([2]; EtOH, SC (70° C. to RT, refrigerator/2 d, freezer/8 d)): A + weak C
- XRPD Result ([2]; HFIPA/IPE, AS precipitation): A + weak
- XRPD Result ([2]; HFIPA, SE): A + weak B
- XRPD Result ([2]; IPA, CC (70° C. to dry ice/IPA), freezer/2 d, about 27 mg scale, 10 mg/mL): C + possible
- XRPD Result ([2]; TFE, SE): A + weak B
